# Peptide text beside a SMILES is read from it. * marks the point of attachment. Fmoc = O=C(OCC1c2ccccc2-c2ccccc21)*
# Target: T1, legumain (Mus musculus, UniProt O89017)
# T1 construct: purchased Novus Biologicals
# T1 sequence (O89017 18-325 limits assumed): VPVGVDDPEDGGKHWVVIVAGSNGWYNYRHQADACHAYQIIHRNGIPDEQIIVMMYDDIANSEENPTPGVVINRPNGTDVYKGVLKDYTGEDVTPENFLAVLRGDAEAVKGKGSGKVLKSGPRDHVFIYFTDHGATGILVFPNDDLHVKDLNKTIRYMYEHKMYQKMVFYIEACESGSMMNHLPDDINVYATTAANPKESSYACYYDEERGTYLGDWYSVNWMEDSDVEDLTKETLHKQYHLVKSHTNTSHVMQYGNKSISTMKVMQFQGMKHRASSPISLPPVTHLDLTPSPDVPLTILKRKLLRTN
# Assay: Legumain activity detection in human plasma (peptide 1/ThT)
# Format: biochemical
# Experimental: In the peptide concentration experiment, appropriate amounts of peptide 1 stock solution (10 mg/mL) were diluted in PBS and mixed with the MES buffer containing legumain, as described above, to give the final peptide concentrations between 0.05 and 1 mg/mL in the assay. In kinetic studies, ThT solution was mixed with the peptide immediately before the addition of activated legumain, and the plate was incubated in a Spark 20M microplate reader (Tecan) at 37° C. for 3 hours, and ThT fluorescence was recorded every 4 minutes. For the inhibitor experiment, the legumain inhibitor, RR-11a, was first dissolved in DMSO (1 mM), and appropriate amounts of inhibitor were incubated with legumain for about 1.0 hour at room temperature in 96 well plates. Finally, the legumain solutions incubated with different amounts of inhibitor were mixed with the peptide 1 solution, and the assay was performed as described above. […]
# To assess the possibility of using the developed self-assembling polypeptides and methods in complex biological environments, legumain detection experiments in human plasma were performed. In initial studies, a background fluorescence signal in plasma (20%) was detected due to the nonspecific interactions between ThT and plasma proteins (see FIG. 24A) (Rovnyagina, N. R. et al., Binding of Thioflavin T by Albumins: An Underestimated Role of Protein Oligomeric Heterogeneity. Int. J. Biol. Macromol. 2018, 108, 284-290). While this background signal was relatively strong, the incubation of peptide 1 in legumain (1000 ng/mL) spiked plasma still produced a detectable fluorescence enhancement (about 2.5 fold) after the addition of ThT (90 μM). […]
# Having a better understanding of the assay's background fluorescence, further studies were performed to optimize the assay performance in plasma. To reduce the background fluorescence, the assay was run in plasma using lower ThT concentrations (see FIGS. 26A and 26B). […] In the optimized assay conditions, a fluorescence enhancement of about 20 fold was obtained in 10% plasma at the legumain concentration of 1000 ng/mL as shown in FIG. 12A. […]
smiles,measurement,setting,value
C[C@H](NC(=O)[C@H](C)NC(=O)[C@H](CCC(=O)O)NC(=O)[C@H](Cc1ccccc1)NC(=O)[C@H](CCCCN)NC(=O)[C@H](Cc1ccccc1)NC(=O)OCC1c2ccccc2-c2ccccc21)C(=O)N[C@@H](CC(N)=O)C(=O)NCC(=O)N[C@@H](CCC(=O)O)C(=O)N[C@@H](CCC(=O)O)C(=O)NCC(=O)N[C@@H](CO)C(=O)NCC(=O)N[C@@H](CCC(=O)O)C(=O)N[C@@H](CCC(=O)O)C(=O)O [peptide 1] (Fmoc-FKFEAANGEEGSGEE-OH; C-terminus assumed),fluorescence enhancement,"10% plasma, ThT 25 μM, legumain 1000 ng/mL",about 20 fold
same,fluorescence enhancement,"20% plasma spiked with legumain 1000 ng/mL, ThT 90 μM",about 2.5 fold
same,ON/OFF ratio of the assay,albumin depleted 20% plasma,about 10
